# Measurements published in patent US7429612B2, “Indoline compound and medicinal use thereof” (Kyoto Pharmaceutical Industries, Ltd., priority 2002, dated 2008).
# Structures can show the parent of a compound that is named as a salt.
# Columns and labels:
# [1] = test system: hepatic ACAT; assay: Hepatic ACAT inhibitory activity (rabbit liver microsomes, [1-14C]-oleoyl CoA); format: biochemical, Japanese white rabbits; settings: Concentration: 10^-6 M; inhibition of cholesteryl oleate production vs control
# Protocol: A high cholesterol feed [a feed added with cholesterol (1%), Clea Japan, Inc.] was fed to male Japanese white rabbits weighing 2-2.5 kg at 100 g per day and the rabbits were bred for 4 weeks. The rabbits were killed by bleeding under anesthesia and liver was removed. The liver was homogenated, and the homogenate was centrifuged at 4° C. and 10,000 rpm for 15 min. The obtained supernatant was further centrifuged at 4° C. and 41,000 rpm for 60 minutes to give microsomal fractions. The microsomal suspension as an enzyme sample, dimethyl sulfoxide (DMSO, […]) or a test compound dissolved in DMSO (test compound solution 3 μl), and reaction substrate [1-^14C]-oleoyl CoA were added to 0.15 M phosphate buffer to the total amount of 300 μl. After incubation at 37° C. for 20 minutes, a chloroform-methanol mixture was added to stop the reaction. Water was added thereto and mixed, and the chloroform layer was separated. The solvent was evaporated to dryness, and the residue was redissolved in n-hexane. The mixture was subjected to thin layer chromatography using a silica gel plate. The spots of cholesteryl oleate on the silica gel plate were scraped, and quantitatively assayed on lo a liquid scintillation counter.
# [2] = test system: THP-1 cell-derived macrophages; assay: THP-1 cell-derived macrophage foam cell formation suppressing effect (cholesterol ester accumulation inhibitory effect); format: cell-based; settings: Concentration: 10^-6 M, acetyl LDL, 3 days culture; for inhibition at 1 µM: Homo sapiens, THP-1, 72 h, read-out: foam cell formation inhibitory rate (%)
# Protocol: THP-1 (Dainippon Pharmaceutical Co., Ltd.) cells were passage cultured in RPMI-1640 medium supplemented with 10% fetal bovine serum (FBS), and the cells of passages 6-13 after purchase were used. The cells were suspended in FBS-containing RPMI-1640 medium to give a suspension having a concentration of 4×10^5 cells/mL. The cell suspension was inoculated to a 12 well microplate by 1 mL, and treated with phorbol 12-myristate 13-acetate (PMA, 200 nM) as a differentiation inducing agent into macrophage. Then acetyl LDL 400 μg/mL prepared separately from plasma-derived LDL of genetically hyperlipidemia rabbit (KHC rabbit, Japan Laboratory Animals, Inc.) was added. In addition, a test compound dissolved in DMSO and diluted with FBS-containing RPMI-1640 medium or a control solvent was added. After culture in a carbon dioxide incubator for 3 days, the cells were washed with phosphate buffered physiological saline (pH 7.0), and the lipid was extracted with n-hexane/isopropanol (3:2). The cells were dissolved in 1M-NaOH and the protein amount was measured. The free cholesterol and cholesterol ester in a lipid extraction sample was measured by the method of Kunitomo et al. (1983). The cholesterol ester was compared between the control cell and the test compound-treated cells, and the cholesterol ester accumulation inhibitory rate of the test compound was calculated.
SMILES,Hepatic ACAT inhibitory ratio (%) [1],inhibition at 1 µM [2],foam cell formation inhibitory rate (%) [2]
"CCCCCCCCN1CCc2c(C)c([N+](=O)[O-])c(C)c(NC(=O)C(C)(C)C)c21 [Example 1, N-(4,6-dimethyl-5-nitro-1-octylindolin-7-yl)-2,2-dimethylpropanamide]",97.4%,,
"CCCCCCCCN1CCc2c(C)c(NS(=O)(=O)NC(C)=O)c(C)c(NC(=O)C(C)(C)C)c21 [Example 3, N-[5-(N-acetylsulfamoylamino)-4,6-dimethyl-1-octylindolin-7-yl]-2,2-dimethylpropanamide]",89.3%,,
"CCCCCCCCN1CCc2c(C)c(NS(=O)(=O)NC(=O)OC)c(C)c(NC(=O)C(C)(C)C)c21 [Example 4, N-[5-(N-methoxycarbonylsulfamoylamino)-4,6-dimethyl-1-octylindolin-7-yl]-2,2-dimethylpropanamide]",75.8%,,
"CCCCCCCCN1CCc2c(C)c(NS(N)(=O)=O)c(C)c(NC(=O)C(C)(C)C)c21.Cl [Example 6, N-(4,6-dimethyl-1-octyl-5-sulfamoylaminoindolin-7-yl)-2,2-dimethylpropanamide hydrochloride]",97.4%,91.2%,
"CCCCCCCCN1CCc2c(C)c(NC(N)=O)c(C)c(NC(=O)C(C)(C)C)c21.Cl [Example 7, N-(4,6-dimethyl-1-octyl-5-ureidoindolin-7-yl)-2,2-dimethylpropanamide hydrochloride]",95.7%,90.9%,
"CCCCCCCCCC(C)(C)C(=O)Nc1c(C)c2c(c(NS(C)(=O)=O)c1C)NCC2 [Example 8, N-(7-methanesulfonylamino-4,6-dimethylindolin-5-yl)-2,2-dimethylundecanamide]",96.3%,89.2%,
"CCCCCCCCCC(C)(C)C(=O)Nc1c(C)c2c(c(NS(C)(=O)=O)c1C)N(C)CC2 [Example 9, N-(7-methanesulfonylamino-1,4,6-trimethylindolin-5-yl)-2,2-dimethylundecanamide]",,70.9%,
"CCCCCCCCN1CCc2c(C)c(CNS(C)(=O)=O)c(C)c(NC(=O)C(C)(C)C)c21.Cl [Example 10, N-(5-methanesulfonylaminomethyl-4,6-dimethyl-1-octylindolin-7-yl)-2,2-dimethylpropanamide hydrochloride]",87.3%,,
"CCCCN1CCc2c(C)c(NS(N)(=O)=O)c(C)c(NC(=O)C(C)(C)C)c21.Cl [Example 19, N-(1-butyl-4,6-dimethyl-5-sulfamoylaminoindolin-7-yl)-2,2-dimethylpropanamide hydrochloride]",93.4%,73.3%,
"Cc1c2c(c(NC(=O)C(C)(C)C)c(C)c1NS(N)(=O)=O)N(CCC(C)C)CC2.Cl [Example 20, N-[1-(3-methylbutyl)-4,6-dimethyl-5-sulfamoylaminoindolin-7-yl]-2,2-dimethylpropanamide hydrochloride]",95.7%,74.7%,
"Cc1c2c(c(NC(=O)C(C)(C)C)c(C)c1NS(N)(=O)=O)N(CC(C)C)CC2.Cl [Example 21, N-[1-(2-methylpropyl)-4,6-dimethyl-5-sulfamoylaminoindolin-7-yl]-2,2-dimethylpropanamide hydrochloride]",92.7%,77.1%,
"CCCCCCCCCC(C)(C)C(=O)Nc1c(C)c2c(c(NS(=O)(=O)C(C)C)c1C)NCC2.Cl [Example 23, N-[4,6-dimethyl-7-(2-propanesulfonylamino)indolin-5-yl]-2,2-dimethylundecanamide hydrochloride]",96.2%,90.5%,
"CCCCCCC(C)(C)C(=O)Nc1c(C)c2c(c(NS(=O)(=O)C(C)C)c1C)NCC2 [Example 24, N-[4,6-dimethyl-7-(2-propanesulfonylamino)indolin-5-yl]-2,2-dimethyloctanamide]",95.7%,90.5%,
"CCCCCCCCCC(C)(C)C(=O)Nc1c(C)c2c(c(NS(=O)(=O)c3ccc(C)cc3)c1C)NCC2 [Example 25, N-[4,6-dimethyl-7-(p-toluene)sulfonylaminoindolin-5-yl]-2,2-dimethylundecanamide]",94.3%,,89.4%
"CCCCCCCCCC(C)(C)C(=O)Nc1c(C)c2c(c(NS(N)(=O)=O)c1C)NCC2.Cl [Example 26, N-(4,6-dimethyl-7-sulfamoylaminoindolin-5-yl)-2,2-dimethylundecanamide hydrochloride]",95.4%,75.3%,
"CCCCCCCCCC(C)(C)C(=O)Nc1c(C)c2c(c(NC(N)=O)c1C)NCC2 [Example 27, N-(4,6-dimethyl-7-ureidoindolin-5-yl)-2,2-dimethylundecanamide]",78.6%,,
"CCCCCCCCS(=O)(=O)Nc1c(C)c(NC(=O)C(C)(C)C)c(C)c2c1NCC2 [Example 29, N-[4,6-dimethyl-7-(1-octanesulfonylamino)indolin-5-yl]-2,2-dimethylpropanamide]",79.5%,,
"Cc1c2c(c(NC(=O)C(C)(C)C)c(C)c1NS(N)(=O)=O)N(C1CCCC1)CC2.Cl [Example 43, N-(1-cyclopentyl-4,6-dimethyl-5-sulfamoylaminoindolin-7-yl)-2,2-dimethylpropanamide hydrochloride]",90.9%,58.7%,
"CCOCCN1CCc2c(C)c(NS(N)(=O)=O)c(C)c(NC(=O)C(C)(C)C)c21.Cl [Example 46, N-[1-(2-ethoxyethyl)-4,6-dimethyl-5-sulfamoylaminoindolin-7-yl]-2,2-dimethylpropanamide hydrochloride]",89.2%,59.1%,
"CCCN1c2c(c(C)c(NS(N)(=O)=O)c(C)c2NC(=O)C(C)(C)C)CC1COC.Cl (centres unmarked) [Example 50, N-(2-methoxymethyl-4,6-dimethyl-1-propyl-5-sulfamoylaminoindolin-7-yl)-2,2-dimethylpropanamide hydrochloride]",86.2%,73.6%,
"CCCN1c2c(c(C)c(NS(N)(=O)=O)c(C)c2NC(=O)C(C)(C)C)CC1COCC (centres unmarked) [Example 51, N-(2-ethoxymethyl-4,6-dimethyl-1-propyl-5-sulfamoylaminoindolin-7-yl)-2,2-dimethylpropanamide hydrochloride]",,86%,
"CCOCCN1c2c(c(C)c(NS(N)(=O)=O)c(C)c2NC(=O)C(C)(C)C)CC1C (centres unmarked) [Example 54, N-[1-(2-ethoxyethyl)-2,4,6-trimethyl-5-sulfamoylaminoindolin-7-yl]-2,2-dimethylpropanamide hydrochloride]",,64.5%,
"CCCN1c2c(c(C)c(NS(N)(=O)=O)c(C)c2NC(=O)C(C)(C)C)CC1CSC.Cl (centres unmarked) [Example 57, N-(4,6-dimethyl-2-methylthiomethyl-1-propyl-5-sulfamoylaminoindolin-7-yl)-2,2-dimethylpropanamide hydrochloride]",94.2%,79.9%,
"CCCN1c2c(c(C)c(NS(N)(=O)=O)c(C)c2NC(=O)C(C)(C)C)CC1CSCC.Cl (centres unmarked) [Example 59, N-(2-ethylthiomethyl-4,6-dimethyl-1-propyl-5-sulfamoylaminoindolin-7-yl)-2,2-dimethylpropanamide hydrochloride]",98.1%,92.1%,
"CCSCCN1CCc2c(C)c(NS(N)(=O)=O)c(C)c(NC(=O)C(C)(C)C)c21.Cl [Example 60, N-[1-(2-ethylthioethyl)-4,6-dimethyl-5-sulfamoylaminoindolin-7-yl]-2,2-dimethylpropanamide hydrochloride]",97.2%,,
"CSCCN1CCc2c(C)c(NS(N)(=O)=O)c(C)c(NC(=O)C(C)(C)C)c21.Cl [Example 61, N-[4,6-dimethyl-1-(2-methylthioethyl)-5-sulfamoylaminoindolin-7-yl]-2,2-dimethylpropanamide hydrochloride]",95.4%,,
